According to PubChem BioAssay AID720588 (Broad Institute, 2013):
Values joined by “and” are separate entries in the source; they are usually repeats but may differ in a detail not shown here. Identical values can stand only once. Active and inactive are the calls of the source.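 Rule for the calls: active = fitted curve falls past a set limit of signal loss at no more than twice the top dose; inconclusive = flat fit between 30 and 70% signal loss, or poor fit; inactive = signal rise, flat within 30%, or crossing too high.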

tested on: not listed separately; assay: ATP-based viability loss in HEK293T cells – cell-based, CellTiter-Glo luminescence, cherry-pick, set 3, cytotoxicity control, dose response (AID 720588); settings: HEK293T viability, CellTiter-Glo ATP luminescence, 72 h; at 21 µM (top of the series);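 for AC35: potency for luminescence loss meaning cytotoxic compounds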

SMILES | activity change, negative = cytotoxicity
COc1ccc(S(=O)(=O)Nc2cccc3c2O[C@H](CN(C)Cc2ccc(C(=O)Nc4ccccc4N)cc2)[C@H](C)CN([C@@H](C)CO)C3=O)cc1 | -18.8% (inactive)

same assay, conditions: HEK293T viability, CellTiter-Glo ATP luminescence, 72 h; at 23.5 µM (top of the series)

SMILES | activity change, negative = cytotoxicity
COC(=O)C[C@@H]1CC[C@@H]2[C@@H](COc3ccc(NC(=O)Nc4cccc(Cl)c4)cc3C(=O)N2C)O1 | 4.77% (inactive)
C[C@H]1CN([C@@H](C)CO)C(=O)Cc2cc(NC(=O)CCCCCC(=O)Nc3ccccc3N)ccc2O[C@H]1CN(C)Cc1ccc(Cl)c(Cl)c1 | -33.8% (inactive)

same assay, conditions: HEK293T viability, CellTiter-Glo ATP luminescence, 72 h; at 26 µM (top of the series)

SMILES | activity change, negative = cytotoxicity
CCNC(=O)c1cc2c(c(-c3cccc(-c4cccc(OC)c4)c3)n1)[C@H](CCO)N([S@@](=O)C(C)(C)C)C2 | -17.3% (inactive)
O=C1NC2C(=CC(O)C(O)C2O)c2cc3c(cc21)OCO3 (stereo unspecified) | -41.4% (inactive)
C[C@@H]1CN([C@H](C)CO)C(=O)c2cc(NS(=O)(=O)c3ccc(Cl)cc3)ccc2O[C@@H]1CN(C)Cc1ccc(Cl)c(Cl)c1 | -9.51% (inactive)
CCOc1ccc(-c2cc(CCCC(=O)NCc3ccc(C)cc3)no2)cc1 | 8.45% (inactive)
C[C@H](CO)N1C[C@H](C)[C@H](CN(C)Cc2ccc(Oc3ccccc3)cc2)Oc2ccc(NC(=O)CCCCCC(=O)Nc3ccccc3N)cc2CC1=O | -19.4% (inactive)
COc1cc(OC)cc(-c2cc3nc(C)c(CCC(=O)O)c(C)n3n2)c1 | 11.4% (inactive)
Nc1ccc2c(c1)OC1(CCCC1)O2 | -16.1% (inactive)
Cc1[nH]c(=S)sc1Cc1ccc(Cl)c(Cl)c1 | 20.1% (inactive)
CCc1ccc(Cn2ncc3c(C(=O)O)cc(C)nc32)cc1 | -2.66% (inactive)
C[C@@H]1CN([C@H](C)CO)C(=O)Cc2cc(N(C)C)ccc2O[C@H]1CN(C)Cc1ccc(C(=O)Nc2ccccc2N)cc1 | -25.9% (inactive)
O=C1c2ccccc2C(=O)N1CCCCNc1ccccc1 | 4.32% (inactive)
OCCN1CCN(C(=S)c2ccc(-c3ccccc3)cc2)CC1 | -3.37% (inactive)
Cc1ccc2c(=O)n3c(nc2c1)C(Cc1ccc(O)cc1)NC(=O)c1cc2ccccc2cc1-3 (stereo unspecified) | -16.8% (inactive)
COc1cccc(Sc2ccccc2/C=N/NC(N)=O)c1 | -10.9% (inactive)
CCOc1ccc(C(c2c(NC(=O)c3ccccc3)sc(C)c2C)N2CCN(CCO)CC2)cc1 (stereo unspecified) | -15.2% (inactive)
Cc1ccc(N=C2NC(=O)/C(=C\c3cccs3)S2)cc1C | -13% (inactive)
COC(=O)C[C@@H]1CC[C@@H]2[C@H](COc3ccc(NC(=O)c4ccc(F)c(F)c4)cc3C(=O)N2C)O1 | 16.7% (inactive)
OC[C@H]1O[C@@H](n2cnc3c(NCc4ccco4)ncnc32)[C@H](O)[C@@H]1O | -42.7% (inactive)
O=c1[nH]c(/C=C2\C=Nc3ccccc32)c(O)n1Cc1ccccc1F | -17.6% (inactive)
COc1ccc(C(=O)CN2C(=O)c3ccccc3S2(=O)=O)cc1 | -13.5% (inactive)
COC(=O)C[C@@H]1CC[C@@H]2[C@H](COc3ccc(NC(=O)Nc4cccc(C#N)c4)cc3C(=O)N2C)O1 | 53.6% (inactive)
CCCN1C(=O)/C(=C/c2nc3ccccc3c(=O)[nH]2)c2ccccc21 | -9.06% (inactive)

tested on: HEK293T viability, CellTiter-Glo ATP luminescence, 72 h; assay: as above; settings: not given

SMILES | AC35
Oc1c(Cl)cc(Cl)c(Cl)c1Cc1c(O)c(Cl)cc(Cl)c1Cl | 11.4 µM
CC1(C)N=C(N)N=C(N)N1c1ccc(OCCCOc2ccccc2)c(Cl)c1 | 11.1 µM
CN=c1scc(-c2cccs2)n1/N=C/c1ccccc1O | 10.5 µM
C(=NNc1ccc2ccccc2n1)c1ccccn1 | 1.62 µM
O=C(C[C@H]1C[C@H]2c3cc(NS(=O)(=O)c4ccc(F)cc4)ccc3O[C@H]2[C@H](CO)O1)NCc1ccc(Oc2ccccc2)cc1 | 16 µM
C[C@@H]1CN([C@@H](C)CO)C(=O)c2cc(N(C)C)ccc2O[C@H]1CN(C)Cc1ccc(C(=O)Nc2ccccc2N)cc1 | 24.6 µM
S=c1[nH]nc(-c2cc(-c3ccccc3)n[nH]2)n1/N=C/C(Br)=C/c1ccccc1 | 12.4 µM
Cc1nc(N)nc(N)c1/C=C/C(C)(C)c1ccc(Cl)cc1 | 0.0229 µM
CC1OC(OC2CC(O)C3(CO)C4C(O)CC5(C)C(C6=CC(=O)OC6)CCC5(O)C4CCC3(O)C2)C(O)C(O)C1O (stereo unspecified) | 0.0877 µM
Cc1cc2c(C(C)C)c(O)c(O)c(C=O)c2c(O)c1-c1c(C)cc2c(C(C)C)c(O)c(O)c(C=O)c2c1O | 9.42 µM
Oc1cccc(-c2nnc(-c3cccc(O)c3)nn2)c1 | 7.1 µM
CC(=NNc1cc(C)c2ccccc2n1)c1ccccn1 | 2 µM
C=C1C(=O)OC2C1CCC(C)C1(O)C=CC(=O)C21C (stereo unspecified) | 9.94 µM
C[C@H]1CN([C@@H](C)CO)C(=O)c2cc(N(C)C)ccc2O[C@@H]1CN(C)Cc1ccc(C(=O)Nc2ccccc2N)cc1 | 24.8 µM
C(=Cc1nc2ccccc2o1)c1ccc2c(c1)OCO2 | 2.47 µM
O=C1NC(=O)N(Cc2ccc(F)cc2)C(=O)/C1=C\C=C\c1ccco1 | 13.3 µM
NC(Cc1ccc(C(F)(F)F)cc1)c1csc(NC(=O)Nc2ccccc2Cc2ccccc2)n1 (stereo unspecified) | 12.4 µM
CCCCCCCCCCCCCCCCCCNc1ccn(C2OC(COP(=O)(O)OCC3OC(n4cc(F)c(=O)[nH]c4=O)CC3O)C(O)C2O)c(=O)n1 (stereo unspecified) | 6.6 µM
OC[C@H]1[C@@H](c2ccc(C#CC3CCCC3)cc2)[C@@H]2CN(CCC(F)(F)F)CCCCN12 | 10.4 µM

SMILES | AC35
C[C@@H]1CN([C@@H](C)CO)C(=O)c2cc(NC(=O)Nc3ccccc3)ccc2O[C@@H]1CN(C)Cc1ccc(C(=O)Nc2ccccc2N)cc1 | 8.46 µM
C[C@@H]1CN([C@@H](C)CO)C(=O)Cc2cc(NC(=O)Nc3ccc(C(F)(F)F)cc3)ccc2O[C@@H]1CN(C)Cc1ccc(C(=O)Nc2ccccc2N)cc1 | 17.4 µM
COc1ccc(-c2cc(CNc3nc(NC(C)C)nc4cc(-c5ccccc5)sc34)on2)cc1 | 12.5 µM
C[C@@H]1CN([C@H](C)CO)S(=O)(=O)c2ccc(C#CC(C)(C)O)cc2O[C@H]1CN(C)Cc1ccc(-c2ccccc2)cc1 | 7.28 µM
CCCCCCCCn1c2c(c(=N)c3c1CCC3)CCCC2 | 3.51 µM
CN=c1scc(-c2ccccc2F)n1/N=C/c1ccc[nH]1 | 10.8 µM
COc1ccc(-c2cnc3c(NC=O)cc(-c4ccccc4OC)cn23)cc1OC | 9.05 µM
O=c1[nH]c(=O)n([C@H]2C[C@H](O)[C@@H](CO)O2)cc1F | 5.28 µM
CN(C)CC1CCC/C(=C\c2ccc(OC(=O)c3ccc(Cl)cc3)cc2)C1=O (stereo unspecified) | 11.3 µM
CN(Cc1cnc2nc(N)nc(N)c2n1)c1ccc(C(=O)N[C@@H](CCC(=O)O)C(=O)O)cc1 | 0.0442 µM and 0.0275 µM
CCOc1cc(/C=N/Nc2cc(C)nc(-n3nc(C)cc3C)n2)ccc1O | 4.12 µM
COc1ccccc1CNC(=O)C[C@@H]1CC[C@H]2[C@@H](COC[C@H](O)CN2C(=O)Nc2ccc(C(F)(F)F)cc2)O1 | 13.5 µM
C[C@H]1CN([C@@H](C)CO)C(=O)c2cc(N(C)C)ccc2O[C@H]1CN(C)Cc1ccc(C(=O)Nc2ccccc2N)cc1 | 3.65 µM
C[C@H]1CN([C@@H](C)CO)S(=O)(=O)c2ccc(C#Cc3ccncc3)cc2O[C@@H]1CN(C)S(=O)(=O)c1ccccc1 | 12.3 µM
COc1ccccc1-c1ccc(OCCCN2CCC(C(O)(c3ccccc3)c3ccccc3)CC2)cc1 | 10.3 µM
CCN(Cc1ccccc1)c1ccc(/C=N/N=C(N)N)cc1 | 13.2 µM
COc1ccccc1NC(=O)N1CCCCN2[C@H](CO)[C@H](c3ccc(-c4cccc(C)c4)cc3)[C@H]2C1 | 10.4 µM
Cc1ccc(C(C)C)c(OCc2ccc(C(=O)N/N=C/c3ccc(O)cc3O)cc2)c1 | 4.02 µM
C[C@@H]1CN([C@H](C)CO)C(=O)c2cc(C#CCN(C)C)cnc2O[C@H]1CN(C)Cc1ccc(-c2ccccc2)cc1 | 12.4 µM

SMILES | AC35
O=C(NCc1ccc(F)cc1)N1[C@H]2CC[C@@H]1C=C(c1ccc(F)cc1OCc1ccccc1)C2 | 14.4 µM
COc1ccc(S(=O)(=O)Nc2ccc3c(c2)C(=O)N([C@H](C)CO)C[C@@H](C)[C@@H](CN(C)CC2CCCCC2)OCCCC[C@H](C)O3)cc1 | 14.1 µM
CN(C)c1ccc(N=Nc2nc3ccccc3n2C)cc1 | 12.5 µM
CCOc1ccc(N=Nc2ccc(O)c3ncccc23)cc1 | 13.4 µM
Cc1ccc(C)c(S(=O)(=O)N2CCN(c3ncnc4sccc34)CC2)c1 | 4.95 µM
C[C@@H]1O[C@@H](O[C@H]2C[C@@H](O)[C@]3(CO)[C@@H]4C(CC[C@]3(O)C2)[C@@]2(O)CC[C@H](C3COC(=O)C3)[C@@]2(C)C[C@H]4O)[C@H](O)[C@H](O)[C@H]1O (stereo partly specified) | 2.43 µM
CC(=O)OC1CC2(O)C3CCC4CC(O)CCC4(C)C3CCC2(C)C1C1=CC(=O)OC1 (stereo unspecified) | 0.262 µM
C[C@@H]1CN([C@@H](C)CO)C(=O)c2cc(NS(=O)(=O)c3ccc(Cl)cc3)ccc2O[C@@H]1CN(C)Cc1ccc(C(=O)Nc2ccccc2N)cc1 | 9.95 µM
O=C(O)c1ccc(N/N=C/c2ccc3nccnc3c2)cc1 | 11.9 µM
CCCCc1c(-c2ccccc2OC)ncn1Cc1ccc(C(C)(C)C)cc1 | 6.42 µM
C[C@H](CO)N1C[C@H](C)[C@@H](CN(C)Cc2ccc(C(F)(F)F)cc2)OCCCC[C@H](C)Oc2ccc(NS(=O)(=O)c3ccc(F)cc3)cc2C1=O | 15.1 µM
CC(=O)Nc1ccc(S(=O)(=O)Nc2ccc(N3CCCCC3)cc2)cc1 | 22.1 µM
O=C1NC(=S)NC(=O)C1=Cc1cccn1-c1ccc(O)cc1 | 19.5 µM
N/C(=C\C(=O)c1cc(Cl)ccc1O)C(Cl)(Cl)Cl | 14.7 µM
COc1cccc(-c2cccc(-c3nc(C(=O)NCC(F)(F)F)cc4c3[C@H](CCO)N([S@@](=O)C(C)(C)C)C4)c2)c1 | 23.5 µM
O=C(Nc1ccc(Br)cc1)c1ccc(F)c(S(=O)(=O)N2CCN(c3ccccn3)CC2)c1 | 8.36 µM
C=C1C(=O)O[C@@H]2[C@H]1[C@@H](OC(=O)/C(C)=C/C)C/C(C)=C\C(=O)/C=C(\C)[C@@H]2O | 7.47 µM
C[C@@H]1CN([C@@H](C)CO)C(=O)c2cc(NS(=O)(=O)c3ccc(F)cc3)ccc2O[C@@H]1CN(C)Cc1ccc(C(=O)Nc2ccccc2N)cc1 | 7.54 µM
